In ChEMBL document CHEMBL4831516, “Development of Membrane-Active Honokiol/Magnolol Amphiphiles as Potent Antibacterial Agents against Methicillin-Resistant Staphylococcus aureus (MRSA)” (J Med Chem, 2021):

Tests used:
Salmonella enterica [1] = experiment: Antibacterial activity against Salmonella enterica 349812 assessed as inhibition of visible growth incubated for 16 to 18 hrs by CLSI method; type: functional; conditions: time 16-18 hrs, read-out: MIC100
Staphylococcus aureus [2] = experiment: Antibacterial activity against methicillin-resistant Staphylococcus aureus clinical isolate M-13 assessed as inhibition of visible growth incubated for 16 to 18 hrs by CLSI method; type: functional; conditions: time 16-18 hrs, read-out: MIC100
Staphylococcus aureus [3] = experiment: Antibacterial activity against methicillin-resistant Staphylococcus aureus clinical isolate M-12 assessed as inhibition of visible growth incubated for 16 to 18 hrs by CLSI method; type: functional; conditions: time 16-18 hrs, read-out: MIC100
[4] = Selectivity index, HC50 for hemolytic activity in sheep RBC to MIC for antibacterial activity against Staphylococcus aureus ATCC29213; type: toxicity; conditions: sheep red blood cells (erythrocytes), read-out: Selectivity Index
Staphylococcus aureus [5] = experiment: Antibacterial activity against methicillin-resistant Staphylococcus aureus clinical isolate M-15 assessed as inhibition of visible growth incubated for 16 to 18 hrs by CLSI method; type: functional; conditions: time 16-18 hrs, read-out: MIC100
Staphylococcus aureus [6] = experiment: Antibacterial activity against methicillin-resistant Staphylococcus aureus clinical isolate M-19 assessed as inhibition of visible growth incubated for 16 to 18 hrs by CLSI method; type: functional; conditions: time 16-18 hrs, read-out: MIC100
Enterococcus faecalis = experiment: Antibacterial activity against Enterococcus faecalis ATCC29212 assessed as inhibition of visible growth incubated for 16 to 18 hrs by CLSI method; type: functional; conditions: time 16-18 hrs, read-out: MIC100
Staphylococcus aureus [7] = experiment: Antibacterial activity against methicillin-resistant Staphylococcus aureus clinical isolate M-20 assessed as inhibition of visible growth incubated for 16 to 18 hrs by CLSI method; type: functional; conditions: time 16-18 hrs, read-out: MIC100
[8] = tested on: Stenotrophomonas maltophilia; experiment: Antibacterial activity against Stenotrophomonas maltophilia assessed as inhibition of visible growth incubated for 16 to 18 hrs by CLSI method; type: functional; conditions: time 16-18 hrs, read-out: MIC100
Staphylococcus aureus [9] = experiment: Antibacterial activity against methicillin-resistant Staphylococcus aureus clinical isolate M-17 assessed as inhibition of visible growth incubated for 16 to 18 hrs by CLSI method; type: functional; conditions: time 16-18 hrs, read-out: MIC100
Staphylococcus aureus [10] = experiment: Antibacterial activity against methicillin-resistant Staphylococcus aureus clinical isolate M-14 assessed as inhibition of visible growth incubated for 16 to 18 hrs by CLSI method; type: functional; conditions: time 16-18 hrs, read-out: MIC100
Salmonella enterica [11] = experiment: Antibacterial activity against Salmonella enterica 8389 assessed as inhibition of visible growth incubated for 16 to 18 hrs by CLSI method; type: functional; conditions: time 16-18 hrs, read-out: MIC100
Escherichia coli = experiment: Antibacterial activity against Escherichia coli ATCC25922 assessed as inhibition of visible growth incubated for 16 to 18 hrs by CLSI method; type: functional; conditions: time 16-18 hrs, read-out: MIC100
Micrococcus luteus = experiment: Antibacterial activity against Micrococcus luteus assessed as inhibition of visible growth incubated for 16 to 18 hrs by CLSI method; type: functional; conditions: time 16-18 hrs, read-out: MIC100
Staphylococcus aureus [12] = experiment: Antibacterial activity against methicillin-resistant Staphylococcus aureus clinical isolate M-18 assessed as inhibition of visible growth incubated for 16 to 18 hrs by CLSI method; type: functional; conditions: time 16-18 hrs, read-out: MIC100
Bacillus subtilis = experiment: Antibacterial activity against Bacillus subtilis assessed as inhibition of visible growth incubated for 16 to 18 hrs by CLSI method; type: functional; conditions: time 16-18 hrs, read-out: MIC100
[13] = Hemolytic activity in sheep RBC assessed as hemolysis incubated for 1 hr; type: ADME, cell-based, Ovis aries, Erythrocyte; conditions: sheep red blood cells (erythrocytes)
Staphylococcus aureus [14] = experiment: Antibacterial activity against Staphylococcus aureus ATCC29213 assessed as inhibition of visible growth incubated for 16 to 18 hrs by CLSI method; type: functional; conditions: time 16-18 hrs, read-out: MIC100
Staphylococcus aureus [15] = experiment: Antibacterial activity against methicillin-resistant Staphylococcus aureus clinical isolate M-16 assessed as inhibition of visible growth incubated for 16 to 18 hrs by CLSI method; type: functional; conditions: time 16-18 hrs, read-out: MIC100
Staphylococcus aureus [16] = experiment: Antibacterial activity against methicillin-resistant Staphylococcus aureus clinical isolate M-11 assessed as inhibition of visible growth incubated for 16 to 18 hrs by CLSI method; type: functional; conditions: time 16-18 hrs, read-out: MIC100

| Structure (SMILES) | MIC (Salmonella enterica [1]) [µg/mL] | MIC (Staphylococcus aureus [2]) [µg/mL] | MIC (Staphylococcus aureus [3]) [µg/mL] | selectivity ratio [4] | MIC (Staphylococcus aureus [5]) [µg/mL] | MIC (Staphylococcus aureus [6]) [µg/mL] | MIC (Enterococcus faecalis) [µg/mL] | MIC (Staphylococcus aureus [7]) [µg/mL] | MIC [8] [µg/mL] | MIC (Staphylococcus aureus [9]) [µg/mL] | MIC (Staphylococcus aureus [10]) [µg/mL] | MIC (Salmonella enterica [11]) [µg/mL] | MIC (Escherichia coli) [µg/mL] | MIC (Micrococcus luteus) [µg/mL] | MIC (Staphylococcus aureus [12]) [µg/mL] | MIC (Bacillus subtilis) [µg/mL] | HC50 at 1 h [13] [µg/mL] | MIC (Staphylococcus aureus [14]) [µg/mL] | MIC (Staphylococcus aureus [15]) [µg/mL] | MIC (Staphylococcus aureus [16]) [µg/mL] |
| --- | --- | --- | --- | --- | --- | --- | --- | --- | --- | --- | --- | --- | --- | --- | --- | --- | --- | --- | --- | --- |
| C=CCc1ccc(O)c(-c2cc(CC=C)ccc2OCCC[N+](C)(C)CC(=O)NCCCC)c1.[Br-] | 32 | 4 | 4 | 298 | 4 | 4 | 4 | 4 | 32 | 4 | 4 | 32 | 8 | 1 | 4 | 1 | 596 | 2 | 4 | 8 |
| C=CCc1ccc(OCCCC[N+](C)(C)CC(=O)NCCCCC)c(-c2ccc(OCCCC[N+](C)(C)CC(=O)NCCCCC)c(CC=C)c2)c1.[Br-].[Br-] | 8 | 2 | 2 | 112 | 2 | 2 | 2 | 2 | 16 | 2 | 2 | 8 | 16 | 2 | 2 | 2 | 448 | 4 | 2 | 1 |
| C=CCc1ccc(OCCCC[N+](C)(C)CC(=O)NCCCC)c(-c2ccc(OCCCC[N+](C)(C)CC(=O)NCCCC)c(CC=C)c2)c1.[Br-].[Br-] | 8 | 2 | 2 | 266 | 4 | 4 | 1 | 2 | 8 | 4 | 2 | 16 | 8 | 4 | 4 | 2 | 531 | 2 | 4 | 2 |
| C=CCc1ccc(O)c(-c2cc(CC=C)ccc2OCCC[N+](C)(C)CC(=O)N(CCCC)CCCC)c1.[Br-] | 8 | 2 | 4 | 382 | 2 | 1 | 2 | 2 | 8 | 2 | 4 | 16 | 8 | 0.5 | 2 | 0.5 | 764 | 2 | 2 | 4 |
| C=CCc1ccc(OCCCC[N+](C)(C)CC(=O)NCCC)c(-c2ccc(OCCCC[N+](C)(C)CC(=O)NCCC)c(CC=C)c2)c1.[Br-].[Br-] | 8 | 4 | 4 | 322 | 4 | 8 | 2 | 8 | 8 | 8 | 4 | 8 | 8 | 2 | 8 | 2 | 644 | 2 | 4 | 4 |
| C=CCc1ccc(OCCCC[N+](C)(C)CC(=O)NCC)c(-c2ccc(OCCCC[N+](C)(C)CC(=O)NCC)c(CC=C)c2)c1.[Br-].[Br-] | 8 | 8 | 8 | 442 | 8 | 8 | 2 | 8 | 8 | 8 | 8 | 32 | 4 | 8 | 8 | 4 | 883 | 2 | 16 | 16 |
| C=CCc1ccc(O)c(-c2cc(CC=C)ccc2OCC[N+](C)(C)CC(=O)NCCCCCC)c1.[Br-] | 64 | 8 | 8 | 181 | 4 | 8 | 16 | 4 | 64 | 8 | 4 | 64 | 32 | 4 | 8 | 4 | 723 | 4 | 4 | 8 |
| C=CCc1ccc(O)c(-c2cc(CC=C)ccc2OCCC[N+](C)(C)CC(=O)NCCCCCC)c1.[Br-] | 16 | 4 | 2 | 372 | 2 | 2 | 2 | 2 | 16 | 2 | 2 | 16 | 8 | 0.5 | 2 | 0.5 | 743 | 2 | 2 | 4 |
